Test results as given in patent publication US7666307B2, “Particle size reduction of bioactive compounds” (K.U. Leuven Research & Development, priority 2003, dated 2010).

Key:
[1] = Dissolution test of loperamide samples, USP 24 paddle method, HPLC; type: physicochemical; settings: 37 °C, paddle 100 rpm
Description: Four different samples containing loperamide (commercially available from Janssen Pharmaceutica, Beerse, Belgium) were prepared and their dissolution profiles were measured. 1 g/l of loperamide and 10 g/l of Aerosil 380 (a silicate commercially available from Degussa, Dusseldorf, Germany) were mixed with bi-distilled water in a mortar. An untreated sample was prepared by fast solidification of part of this suspension in a pre-cooled ball that was kept in liquid nitrogen followed by freeze-drying. […]
Dissolution experiments were performed in a SR8 PLUS Hanson dissolution test station (commercially available from Chatsworth, United States) while using the USP 24 method (paddle method, 100 rpm). […] The corresponding concentrations were determined from the calibration curve with HPLC.
The HPLC system used for this determination consisted of LiChroGraph® L-7100 HPLC pump, an auto-sampler model L-7200 equipped with a 100 μl loop, a UV detector model L-7400 set at 220 nm, and an Interface D-7000, all from commercially available from Merck-Hitachi (Darmstadt, Germany). UV signals were monitored and peaks were integrated using the D-7000 HSM software. […]

[2] = cited from earlier work

CN(C)C(=O)C(CCN1CCC(O)(c2ccc(Cl)cc2)CC1)(c1ccccc1)c1ccccc1 [loperamide]
dissolution rate versus corresponding untreated sample ([1]; magnetic treatment in the presence of a silicate (Aerosil)): significantly increased
dissolution rate versus corresponding untreated sample ([1]; magnetic treatment in the presence of a surfactant (Tween 80)): significantly increased

CCCCNc1ccc(C(=O)OCCN(C)C)cc1 [tetracaine]
average particle diameter ([2]; aqueous nanosuspensions, U.S. Pat. No. 5,858,410): 91 nm

C#C[C@]1(O)CC[C@H]2[C@@H]3CCC4=Cc5oncc5C[C@]4(C)[C@H]3CC[C@@]21C [danazol]
size to which 10% of the particles are reduced ([2]; dispersion refined by electric field, U.S. Pat. No. 5,503,723): 180 nm
